Laboratory results from US20100119599A1 (ARCHER PHARMACEUTICALS, INC., priority 2006, published 2010).
Read-outs that look alike come from different tables or passages of the source.

Experiments:
Aβ1-40 = assay: Measurement of Aβ1-40 in culture medium of 7W WT APP751 CHO cells by ELISA; assay type: cell-based, Chinese hamster; conditions: for Aβ1-40 (% of control): CHO cells that overexpress APP751, zero = below the detection limit of the assay; for activity at 5 µM: Cricetulus griseus, 5 μM test compound, CHO cells stably transfected with human APP751, culture medium, ELISA, control DMSO;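 as to all read-outs here: 5 µM test compound but RI-coded compounds at 10 µM for 24 hours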
Aβ1-42 = assay: Measurement of Aβ1-42 in culture medium of 7W WT APP751 CHO cells by ELISA; assay type: cell-based, Chinese hamster; conditions: for Aβ1-42 (% of control): CHO cells that overexpress APP751, zero = below the detection limit of the assay; for activity at 5 µM: Cricetulus griseus, 5 μM test compound, CHO cells stably transfected with human APP751, culture medium, ELISA, control DMSO;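 as to Aβ1-42 (% of control): 5 µM test compound but RI-coded compounds at 10 µM for 24 hours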
[1] = Table 1, 0 = no detectable amount
[2] = Table 1, 0 = no detectable amount, read-out: Aβ1-42 (% of control)

SMILES | Aβ1-40 (% of control) (Aβ1-40) | Aβ1-42 (% of control) (Aβ1-42) | activity at 5 µM (Aβ1-40; [1]) [%] | activity at 5 µM (Aβ1-42; [2]) [%] | also measured
CC1=C(C(=O)Nc2ccccc2)C(c2cccs2)C(C#N)=C(SCC(=O)Nc2ccccc2C(C)C)N1 (stereo not shown) [RI_56] | 54.5 % of control | 100 % of control |  |  | 
CCCOCCOC(=O)C1=C(C)NC2=C(C(=O)CC(C)(C)C2)C1c1ccc(Br)cc1 (stereo not shown) [ST052437, 2-propoxyethyl 4-(4-bromophenyl)-2,7,7-trimethyl-5-oxo-1,4,6,7,8-pentahydroquinoline-3-carboxylate] |  |  | 5.31 | 16.5 | 
CC1=C(C(=O)Nc2ccccc2)C(c2ccsc2)C(C#N)=C(SCC(=O)Nc2ccc(Cl)c(C)c2)N1 (stereo not shown) [RI_83] | 44.1 % of control | 55.4 % of control |  |  | 
CCOC(=O)C1=C(C)NC2=C(C(=O)CC(C)(C)C2)C1c1cc2c(cc1[NH+]([O-])O)OCO2 (stereo not shown) [ST013060, ethyl 2,7,7-trimethyl-4-(6-nitro(2H-benzo[d]1,3-dioxolan-5-yl))-5-oxo-1,4,6,7,8-pentahydroquinoline-3-carboxylate] |  |  | 32.7 | 99.4 | 
CC1=C(C(=O)OCc2ccccc2)C(c2cccs2)C2=C(CCCC2=O)N1 (stereo not shown) [ST017233, phenylmethyl 2-methyl-5-oxo-4-(2-thienyl)-1,4,6,7,8-pentahydroquinoline-3-carboxylate] |  |  | 60.9 | 27.4 | 
CCC(C)OC(=O)C1=C(C)NC2=C(C(=O)CC(c3ccc(OC)cc3)C2)C1c1cc2c(cc1[N+](=O)[O-])OCO2 (stereo not shown) [ST017236, methylpropyl 7-(4-methoxyphenyl)-2-methyl-4-(6-nitro(2H-benzo[d]1,3-dioxolan-5-yl))-5-oxo-1,4,6,7,8-pentahydroquinoline-3-carboxylate] |  |  | 61 | 98.1 | 
CC1=C(C(=O)Nc2ccccc2)C(c2ccsc2)C(C#N)=C(S)N1 (stereo not shown) [RI_29] | 79.7 % of control | 100 % of control |  |  | 
Cc1ccsc1/C=c1\sc2n(c1=O)C(N)=C(C#N)C(c1sccc1C)C=2C#N (stereo not shown) [ST006952, 5-amino-7-(3-methyl(2-thienyl))-2-[(3-methyl(2-thienyl))methylene]-3-oxo-4,7-dihydro-1,3-thiazolidino[3,2-a]pyridine-6,8-dicarbonitrile] | 48.24 % of control | 77.1 % of control |  |  | 
COc1ccc(COC(=O)C2=C(C)NC3=C(C(=O)CC(C)(C)C3)C2c2ccc(O)c(OC)c2)cc1 (stereo not shown) [ST017025, (4-methoxyphenyl)methyl 4-(4-hydroxy-3-methoxyphenyl)-2,7,7-trimethyl-5-oxo-1,4,6,7,8-pentahydroquinoline-3-carboxylate] |  |  | 30.1 | 32.2 | 
COC(=O)C1=CNC=C(C(=O)OC)C1c1cccc(OC)c1 [ST052261, methyl 5-(methoxycarbonyl)-4-(3-methoxyphenyl)-1,4-dihydropyridine-3-carboxylate] | 38.04 % of control | 57.24 % of control |  |  | 
CCc1cccc(NC(=O)CSC2=C(C#N)C(c3ccc(Cl)s3)C(C(=O)Nc3ccccc3)=C(C)N2)c1 (stereo not shown) [RI_88] | 70.1 % of control | 54.6 % of control |  |  | 
CC1=C(C(=O)OC2CCCC2)C(c2cccs2)C2=C(CCCC2=O)N1 (stereo not shown) [ST017171, cyclopentyl 2-methyl-5-oxo-4-(2-thienyl)-1,4,6,7,8-pentahydroquinoline-3-carboxylate] |  |  | 62.5 | 63.4 | 
CCOc1ccccc1C1C(C(=O)OC2CCCCC2)=C(C)NC2=C1C(=O)CC(C)(C)C2 (stereo not shown) [ST017304, cyclohexyl 4-(2-ethoxyphenyl)-2,7,7-trimethyl-5-oxo-1,4,6,7,8-pentahydroquinoline-3-carboxylate] |  |  | 52 | 57.2 | 
CC(=O)C1=C(C)NC(SCC(=O)Nc2c(C)cc(Br)cc2Br)=C(C#N)C1c1cc(C)cs1 (stereo not shown) [ST048506, 2-[5-acetyl-3-cyano-6-methyl-4-(4-methyl(2-thienyl))(2-1,4-dihydropyridylthio)]-N-(2,4-dibromo-6-methylphenyl)acetamide] | 91.16 % of control | 65.58 % of control |  |  | 
CC1=C(C(=O)OCCc2ccccc2)C(c2ccccc2Cl)C2=C(CC(C)(C)CC2=O)N1 (stereo not shown) [ST015085, 2-phenylethyl 4-(2-chlorophenyl)-2,7,7-trimethyl-5-oxo-1,4,6,7,8-pentahydroquinoline-3-carboxylate] |  |  | 69.9 | 72.9 | 
CCc1cccc(NC(=O)CSC2=C(C#N)C(c3ccc(-c4ccccc4)s3)C(C(=O)Nc3ccccc3)=C(C)N2)c1 (stereo not shown) [RI_89] | 63.7 % of control | 55.1 % of control |  |  | 

SMILES | Aβ1-40 (% of control) (Aβ1-40) | Aβ1-42 (% of control) (Aβ1-42) | activity at 5 µM (Aβ1-40; [1]) [%] | activity at 5 µM (Aβ1-42; [2]) [%] | also measured
N#CC1=C(N)n2c(s/c(=C\c3cccs3)c2=O)=C(C#N)C1c1cccs1 (stereo not shown) [RI_98] | 74.6 % of control | 78.2 % of control |  |  | 
COC(=O)CSC1=C(C#N)C(c2ccc(Cl)cc2)C(C(=O)OC(C)(C)C)=C(C)N1 (stereo not shown) [ST050862, methyl 2-{5-[(tert-butyl)oxycarbonyl]-4-(4-chlorophenyl)-3-cyano-6-methyl-2-1,4-dihydropyridylthio}acetate] | 65.24 % of control | 56.21 % of control |  |  | 
CCOC(=O)C1=C(C)NC2=C(C(=O)CC(c3ccc(OC)cc3)C2)C1c1ccc(OCc2ccccc2)cc1 (stereo not shown) [ST017078, ethyl 7-(4-methoxyphenyl)-2-methyl-5-oxo-4-[4-(phenylmethoxy)phenyl]-1,4,6,7,8-pentahydroquinoline-3-carboxylate] |  |  | 51.8 | 49.4 | 
COC(=O)C1=C(C)NC2=C(C(=O)CC(c3ccc(Cl)cc3)C2)C1c1ccc(Cl)c(Cl)c1 (stereo not shown) [ST015215, methyl 4-(3,4-dichlorophenyl)-7-(4-chlorophenyl)-2-methyl-5-oxo-1,4,6,7,8-pentahydroquinoline-3-carboxylate] |  |  | 23.1 | 39.8 | 
CCOc1cc(/C=c2\sc3n(c2=O)C(N)=C(C#N)C(c2ccc(OCC(N)=O)c(OCC)c2)C=3C#N)ccc1OCC(N)=O (stereo not shown) [ST025037, 2-[4-(5-amino-2-{[4-(carbamoylmethoxy)-3-ethoxyphenyl]methylene}-6,8-dicyano-3-oxo(4,7-dihydro-1,3-thiazolidino[3,2-a]pyridin-7-yl))-2-ethoxyphenoxy]acetamide] | 80.02 % of control | 67.1 % of control |  |  | 
CCCOC(=O)C1=C(C)NC2=C(C(=O)CC(C)(C)C2)C1c1ccncc1 (stereo not shown) [ST017249, propyl 2,7,7-trimethyl-5-oxo-4-(4-pyridyl)-1,4,6,7,8-pentahydroquinoline-3-carboxylate] |  |  | 67 | 75.1 | 
N#CC(C#N)=CC=C1C=CN(Cc2ccccc2)C=C1 [ST208051, {2-[1-benzyl-4-hydropyridylidene]ethylidene}methane-11-dicarbonitrile] |  |  |  |  | activity at 5 µM (Aβ1-40; Table 3): 57.1%; activity at 5 µM (Aβ1-42; Table 3, read-out: Aβ-42 (% of control)): 75%
COC(=O)C1=C(C)NC2=C(C(=O)CCC2)C1c1ccc(Cl)c([N+](=O)[O-])c1 (stereo not shown) [ST052361, methyl 4-(4-chloro-3-nitrophenyl)-2-methyl-5-oxo-1,4,6,7,8-pentahydroquinoline-3-carboxylate] |  |  | 84.1 | 63.2 | 
COC(=O)C1=C(C)NC2=C(C(=O)CC(c3ccc(OC)cc3)C2)C1c1cccc(OC)c1OC (stereo not shown) [ST016999, methyl 4-(2,3-dimethoxyphenyl)-7-(4-methoxyphenyl)-2-methyl-5-oxo-1,4,6,7,8-pentahydroquinoline-3-carboxylate] |  |  | 67.3 | 82.8 | 
CC1=C(C(=O)OC(C)(C)C)C(c2ccc(Cl)cc2)C(C#N)=C(SCC(=O)Nc2cc(C)ccc2C)N1 (stereo not shown) [ST050428, tert-butyl 6-{[N-(2,5-dimethylphenyl)carbamoyl]methylthio}-4-(4-chlorophenyl)-5-cyano-2-methyl-1,4-dihydropyridine-3-carboxylate] | 95.74 % of control | 65.47 % of control |  |  | 
CC1=C(C(=O)OCCOc2ccccc2)C(c2coc3ccc(C)cc3c2=O)C2=C(CCCC2=O)N1 (stereo not shown) [ST052330, 2-phenoxyethyl 2-methyl-4-(6-methyl-4-oxochromen-3-yl)-5-oxo-1,4,6,7,8-pentahydroquinoline-3-carboxylate] |  |  | 42.6 | 15.5 | 
CCOc1ccccc1C1C(C(=O)OCCOc2ccccc2)=C(C)NC2=C1C(=O)CC(C)(C)C2 (stereo not shown) [ST052381, 2-phenoxyethyl 4-(2-ethoxyphenyl)-2,7,7-trimethyl-5-oxo-1,4,6,7,8-pentahydroquinoline-3-carboxylate] |  |  | 45.1 | 62 | 
CCc1cccc(NC(=O)CSC2=C(C#N)C(c3sccc3Oc3ccccc3)C(C(=O)Nc3ccccc3)=C(C)N2)c1 (stereo not shown) [RI_81] | 73.6 % of control | 100 % of control |  |  | 
COC(=O)C1=CN(C2CC2)C=C(C(=O)OC)C1c1cc2c(cc1Cl)OCO2 [ST051458, methyl 4-(6-chloro(2H-benzo[d]1,3-dioxolan-5-yl))-1-cyclopropyl-5-(methoxycarbonyl)-1,4-dihydropyridine-3-carboxylate] | 77.81 % of control | 59.9 % of control |  |  | 
CC1=C(C(=O)Nc2ccccc2)C(c2cccs2)C(C#N)=C(SCC(=O)Nc2cccc(C)c2)N1 (stereo not shown) [RI_91] | 55.9 % of control | 60.7 % of control |  |  | 
CCCCCOC(=O)C1=C(C)NC2=C(C(=O)CCC2)C1c1cc(Br)c(O)c(OC)c1 (stereo not shown) [ST013170, pentyl 4-(3-bromo-4-hydroxy-5-methoxyphenyl)-2-methyl-5-oxo-1,4,6,7,8-pentahydroquinoline-3-carboxylate] |  |  | 62.8 | 49.8 | 
